According to patent US4687843A, “Esterified propoxylated glucose compositions” (Amerchol Corporation, priority 1986, dated 1987):

Columns and labels:
[1] = in vivo
[2] = test system: rabbits (dermal); conditions: rabbit, in vivo
[3] = test system: rabbits (eye); conditions: rabbit, in vivo

Substance: PPG-20 Methyl Glucose Ether Distearate
- Comedogenic Assay [1]: Non-comedogenic
- Primary dermal irritant [2]: not a primary dermal irritant
- Primary dermal irritation [2]: Not a primary dermal irritant
- Draize test score [3]: negligible
- Eye irritation [3]: Practically non-irritating
